One assay relates to Enterococcus faecalis. As to the kind of experiment: MIC, broth microdilution (Example 1). It is filed as cell-based. As for the experimental part: (§1) Stock solutions of all antibacterial agents were prepared at 80-fold (80×) the final target concentration in the appropriate solvent and the solution was allowed to stand for 60 minutes. All antibacterial agents were in solution under these conditions. The final drug concentrations in the FIC assay plates were set to bracket the MIC value of each agent for each test organism, unless the strain was totally resistant to the test agent.
(§2) The test organisms were originally received from clinical sources, or from the American Type Culture Collection. Upon receipt, the isolates were streaked onto the appropriate growth medium: Chocolate Agar for H. influenzae, Tryptic Soy Agar II (Becton Dickinson, Sparks, Md.) supplemented with 5% defibrinated sheep blood for streptococci, and unsupplemented Tryptic Soy Agar II for all other organisms. Colonies were harvested from these plates and a cell suspension was prepared in Tryptic Soy Broth (Becton Dickinson) containing cryoprotectant. Aliquots were then frozen at −80° C. On the day prior to assay, the frozen seeds of the organisms to be tested in that session were thawed and streaked for isolation onto the appropriate agar medium plates and incubated overnight at 35° C.
(§3) The test medium for H. influenzae was Haemophilus Test Medium. Streptococci were tested in Mueller Hinton II Broth (Becton Dickinson; Lot 6235472) supplemented with 2% lysed horse blood (Cleveland Scientific, Bath, Ohio; Lot H88621). All other organisms were tested in Mueller Hinton II Broth (Becton Dickinson, Lot 6235472). The broth was prepared at 1.05× normal weight/volume to offset the 5% volume of the drugs in the final test plates.
(§4) In order to select the proper test concentrations for each drug combination, minimal inhibitory concentration (MIC) values were first determined using the broth microdilution method previously described (Clinical and Laboratory Standards Institute. Methods for Dilution Antimicrobial Susceptibility Tests for Bacteria That Grow Aerobically; Approved Standard—Seventh Edition. Clinical and Laboratory Standards Institute document M7-A7 [ISBN 1-56238-587-9]. Clinical and Laboratory Standards Institute, 940 West Valley Road, Suite 1400, Wayne, Pa. 19087-1898 USA, 2006).
(§5) The wells of standard 96-well microdilution plates (Falcon 3918) were filled with 150 μL of 100% DMSO using the Multidrop 384. These plates were used to prepare the drug “mother plates” which provided the serial drug dilutions for the drug combination plates. The Biomek 2000 was used to transfer 150 μl of each stock solution (80×) from the wells in Column 1 of a deep well plate to the corresponding wells in Column 1 of the mother plate and to make seven 2-fold serial dilutions. Two mother plates, one for each drug, were combined to form a “checkerboard” pattern by transfer of equal volumes (using a multi-channel pipette) to the drug combination plate. Row H and Column 8 each contained serial dilutions of one of the agents alone for determination of the MIC.
(§6) Plates were stacked 3 high, covered with a lid on the top plate, placed in plastic bags, and incubated at 35° C. for approximately 20 hours. Following incubation, the microplates were removed from the incubator and viewed from the bottom using a ScienceWare plate viewer. Prepared reading sheets were marked for the MIC of drug 1 (row H), the MIC of drug 2 (column 8) and the wells of the growth-no growth interface.
For orientation: Dilution methods test growth across graded concentrations, often in twofold steps.

Another assay concerns Staphylococcus aureus. As to the kind of experiment: MIC, broth microdilution (Example 1). It is filed as cell-based. As for the experimental part:
as §1, §2, §3, §4, §5, §6

In another assay the test system is Streptococcus pyogenes. The assay can be described thus: MIC, broth microdilution (Example 1). It is filed as cell-based. As to the method: as §1, §2, §3, §4, §5, §6
A further assay concerns HA-MRSA. As to the kind of experiment: Susceptibility testing MIC/MBC, broth microdilution (Example 3). It is filed as cell-based, Staphylococcus aureus. Particulars: for MBC: read-out: MBC; for MIC: read-out: MIC. As to the method: Two hundred clinical HA-MRSA isolates, harboring the SCCmecIV type, were evaluated for susceptibility testing. […] Four strains, including 1 hVISA and 1 VISA, characterized by population analysis profile and Macro Etest were selected for time-kill analysis.
Trypose soy agar (TSA; Difco, Detroit, Mich.) was used for colony counting.
Minimum inhibitory concentrations (MIC) and minimum bactericidal concentrations (MBC) were determined by broth microdilution for all antimicrobials, according to the Clinical and Laboratory Standards Institute (CLSI) guidelines (Clinical and Laboratory Standards Institute. 2006. Methods for Dilution Antimicrobial Susceptibility Tests for Bacteria That Grow Aerobically; Approved Standard. 7th ed. Wayne, Pa.: CLSI). MBC values were determined by plating of aliquots of 5 μL from clear wells onto TSA. All susceptibility testing were performed in duplicate.

The subject of a further assay is ESBL-producing E. coli. The assay can be described thus: Susceptibility testing MIC/MBC, broth microdilution (Example 2). In kind it is cell-based, Escherichia coli. Particulars: for MBC / MIC: Escherichia coli; for MBC: read-out: MBC; for MIC: read-out: MIC.
[1] abbreviates: Staphylococcus aureus, MRSA / VISA, HA-MRSA isolate R2303 (VISA).
Where [2] appears, read: Staphylococcus aureus, MRSA, HA-MRSA isolate R3804.
The mark [3] stands for this setting: Staphylococcus aureus, MRSA, HA-MRSA isolate R3875 (hVISA).
Where [4] appears, read: Staphylococcus aureus, MRSA, HA-MRSA isolate R4039.
Where [5] appears, read: Staphylococcus aureus, ATCC29213, S. aureus 0100 (ATCC 29213), FIC control, read-out: MIC.

The record followed here is patent publication US20100197650A1, “COMPOSITIONS AND METHODS OF TREATMENT COMPRISING CEFTAROLINE” (FOREST LABORATORIES HOLDINGS LTD., priority 2008, published 2010).

As a reminder, the MIC is the smallest concentration in the dilution series that meets the test's criterion for growth inhibition. In general, MIC50 refers to the lowest concentration that inhibits either 50% of growth or 50% of the strains tested, depending on the study. For orientation: MIC90 means an inhibitory concentration at the 90% level, which refers to growth in some studies and to a panel of isolates in others. As usually defined, the MBC is the lowest tested concentration that kills the bacteria rather than only halting them.

≈ marks a conversion by molar mass, not a printed value. Where “and” joins values, the source holds several entries; their conditions need not be identical. Equal values may be shown once. Read-outs that look alike come from different tables or passages of the source.

As to `CCCCCCCCCC(=O)N[C@@H](Cc1c[nH]c2ccccc12)C(=O)N[C@H](CC(N)=O)C(=O)N[C@@H](CC(=O)O)C(=O)N[C@@H]1C(=O)NCC(=O)N[C@@H](CCCN)C(=O)N[C@@H](CC(=O)O)C(=O)N[C@H](C)C(=O)N[C@@H](CC(=O)O)C(=O)NCC(=O)N[C@H](CO)C(=O)N[C@@H]([C@H](C)CC(=O)O)C(=O)N[C@@H](CC(=O)c2ccccc2N)C(=O)O[C@@H]1C` [Daptomycin], in the assay with Enterococcus faecalis (Enterococcus faecalis, E. faecalis 0795 (VSE), read-out: MIC), the MIC was 1 µg/mL. Further, in the assay with Enterococcus faecalis (Enterococcus faecalis, E. faecalis 0796 (VSE), read-out: MIC), the MIC was determined as 2 µg/mL. Also, the minimal inhibitory concentration (MIC) in the assay with Staphylococcus aureus (Staphylococcus aureus, MRSA, S. aureus 0765 (MRSA), read-out: MIC) came out at 0.5 µg/mL. Moreover, the MIC in the assay with Staphylococcus aureus (Staphylococcus aureus, MRSA, S. aureus 2053 (MRSA), read-out: MIC) was 0.5 µg/mL. In the assay with Staphylococcus aureus (Staphylococcus aureus, MSSA, S. aureus 0753 (MSSA), read-out: MIC), the MIC turned out to be 0.5 µg/mL. In the assay with Staphylococcus aureus (Staphylococcus aureus, MSSA, S. aureus 2063 (MSSA), read-out: MIC), the minimum inhibitory concentration (MIC) turned out to be 1 µg/mL. Moreover, in the assay on Streptococcus pyogenes (S. pyogenes 0717), the MIC turned out to be 0.06 µg/mL. Further, the MIC in the assay with Streptococcus pyogenes (Streptococcus pyogenes, S. pyogenes 0717, read-out: MIC) came to 0.05 µg/mL. Also, the minimal inhibitory concentration (MIC) with Streptococcus pyogenes (Streptococcus pyogenes, S. pyogenes 0722, read-out: MIC) amounted to 0.06 µg/mL. Moreover, in the assay on HA-MRSA (200 HA-MRSA isolates), the “% of Isolates with MBC 0.25 μg/mL” value worked out at 47.5%, the “% of Isolates with MBC […] μg/mL” value worked out at 35%, the “% of Isolates with MBC […] μg/mL” value worked out at 5% and the “% of Isolates with MBC […] μg/mL” value was found to be 2.5%. For the same compound, in the assay on HA-MRSA (200 HA-MRSA isolates), the “% of Isolates with MBC […]” value is 9.5%, the “% of Isolates with MBC ≧4 μg/mL” value came to 0.5%, the “% of Isolates with MIC 0.25 μg/mL” value was 58.5% and the “% of Isolates with MIC […] μg/mL” value is listed as 20.5%. Moreover, in the assay on HA-MRSA (200 HA-MRSA isolates), the “% of Isolates with MIC […] μg/mL” value came to 1%, the “% of Isolates with MIC […]” value was 19.5%, the “% of Isolates with MIC ≧4 μg/mL” value is 0.5% and the “MBC range” value is 0.125 to 4 µg/mL. The “MIC range” value against HA-MRSA (200 HA-MRSA isolates) lay within 0.125 to 4 µg/mL. In addition, in the assay on HA-MRSA (Staphylococcus aureus, MRSA, 200 HA-MRSA isolates, read-out: MIC50), the MIC50 was determined as 0.25 µg/mL (≈ 0.154 µM). In the assay with HA-MRSA (Staphylococcus aureus, 200 HA-MRSA isolates, read-out: MIC90), the MIC90 was found to be 0.5 µg/mL (≈ 0.309 µM).
On to `NC[C@H]1O[C@H](O[C@H]2[C@H](O)[C@@H](O[C@H]3O[C@H](CO)[C@@H](O)[C@H](N)[C@H]3O)[C@H](N)C[C@@H]2N)[C@H](N)C[C@@H]1O` [Tobramycin], for which the minimum bactericidal concentration (MBC) in the assay on HA-MRSA (setting [1]) was 0.5 µg/mL (≈ 1.07 µM); in the assay on HA-MRSA (setting [2]), 1 µg/mL (≈ 2.14 µM); with HA-MRSA (setting [3]), 0.5 µg/mL (≈ 1.07 µM); with HA-MRSA (setting [4]), 1 µg/mL (≈ 2.14 µM). The minimum inhibitory concentration (MIC) is 0.125 µg/mL (≈ 0.267 µM) in the assay with HA-MRSA (setting [1]), 0.5 µg/mL (≈ 1.07 µM) with HA-MRSA (setting [2]), 0.5 µg/mL (≈ 1.07 µM) with HA-MRSA (setting [3]) and 1 µg/mL (≈ 2.14 µM) in the assay on HA-MRSA (setting [4]).
In the assay with ESBL-producing E. coli (E. coli (10) clinical isolates), `CO/N=C(\C(=O)N[C@@H]1C(=O)N2C(C(=O)[O-])=C(C[N+]3(C)CCCC3)CS[C@H]12)c1csc(N)n1` [Cefepime] gave an MBC range of 0.25 to 512 µg/mL and an MIC range of 0.125 to 256 µg/mL. Further, in the assay with ESBL-producing E. coli (E. coli isolate no. 5401), the MBC came to 4 µg/mL (≈ 8.32 µM) and the MIC was determined as 4 µg/mL (≈ 8.32 µM). Besides, in the assay on ESBL-producing E. coli (E. coli isolate no. 5411), the MBC was 4 µg/mL (≈ 8.32 µM) and the minimum inhibitory concentration (MIC) was found to be 2 µg/mL (≈ 4.16 µM).
Regarding `CC1(C)S[C@@H]2[C@H](NC(=O)[C@H](N)c3ccc(O)cc3)C(=O)N2[C@H]1C(=O)O` [Amoxicillin], in the assay with Staphylococcus aureus (setting [5]), the MIC amounted to 4 µg/mL.
Take `O=C(O)c1cn(C2CC2)c2cc(N3CCNCC3)c(F)cc2c1=O` [Ciprofloxacin]: the MIC with Enterococcus faecalis (E. faecalis 0101 (ATCC 29212), FIC control) is 1 µg/mL and 0.5 µg/mL; in the assay on Enterococcus faecalis (Enterococcus faecalis, ATCC29212, E. faecalis 0101 (ATCC 29212), FIC control, read-out: MIC), 0.5 to 1 µg/mL; with Staphylococcus aureus (S. aureus 0100 (ATCC 29213), FIC control), 0.50 µg/mL and 0.25 µg/mL; in the assay on Staphylococcus aureus (setting [5]), 0.25 to 0.5 µg/mL.
